From BindingDB's records for patent WO2025051920 (Sanofi-Aventis Deutschland, 2025)
Bridge positions count the residues as written; N and C are the ends. Square brackets hold non-standard residues; d marks the D form. Peptide text beside a SMILES is read from it. 2Nal = N[C@@H](Cc1ccc2ccccc2c1)C(=O)O; dOrn = NCCC[C@@H](N)C(=O)O; Aib = CC(C)(N)C(=O)O

Each compound was assayed against Interleukin-23 subunit alpha/receptor (UniProt Q5VWK5) (assay: ELISA assay for specific human IL-23R inhibitors).
Sequence of Interleukin-23 subunit alpha/receptor (Q9NPF7 whole entry): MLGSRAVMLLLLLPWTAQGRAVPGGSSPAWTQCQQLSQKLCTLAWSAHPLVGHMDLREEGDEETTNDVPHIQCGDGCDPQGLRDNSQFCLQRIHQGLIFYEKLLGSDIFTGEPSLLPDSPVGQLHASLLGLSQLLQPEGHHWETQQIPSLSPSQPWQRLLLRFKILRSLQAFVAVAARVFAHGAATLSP
Sequence of Interleukin-23 subunit alpha/receptor (Q5VWK5 whole entry): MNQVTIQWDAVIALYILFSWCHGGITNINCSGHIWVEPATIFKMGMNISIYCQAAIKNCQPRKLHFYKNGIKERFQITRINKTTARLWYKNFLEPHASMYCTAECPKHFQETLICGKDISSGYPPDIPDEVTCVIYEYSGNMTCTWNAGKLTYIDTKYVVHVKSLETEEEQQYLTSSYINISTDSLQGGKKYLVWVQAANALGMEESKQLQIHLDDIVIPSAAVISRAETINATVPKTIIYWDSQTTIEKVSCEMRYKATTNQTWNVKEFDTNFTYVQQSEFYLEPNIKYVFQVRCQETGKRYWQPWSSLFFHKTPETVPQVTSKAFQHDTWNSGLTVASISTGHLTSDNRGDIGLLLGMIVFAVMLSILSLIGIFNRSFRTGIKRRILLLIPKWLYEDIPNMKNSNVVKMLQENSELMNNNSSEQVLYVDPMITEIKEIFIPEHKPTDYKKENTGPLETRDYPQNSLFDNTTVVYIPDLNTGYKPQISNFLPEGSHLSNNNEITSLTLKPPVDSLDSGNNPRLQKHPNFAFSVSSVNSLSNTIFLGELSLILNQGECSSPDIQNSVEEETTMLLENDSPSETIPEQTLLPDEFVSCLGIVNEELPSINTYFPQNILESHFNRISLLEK
Procedure: A 384-well plate was coated with 50 µl/well of human IL-23 at a final concentration of […] and incubated overnight at 4°C. The wells were washed 3 times with […] wash buffer and blocked with […] blocking buffer for 60 minutes at room temperature and washed again. 20 µl of serially diluted test peptides was added to each well and subsequently 20 µl of recombinant human IL-23R-Fc chimera at final concentration of […]. The plate was incubated for 60 minutes at room temperature. After the wells were washed, bound IL-23R-Fc was detected with goat anti-hu- IgG 1 -HRP antibody. Signals were visualized with QuantaBlu Fluorogenic Peroxidase Substrate.

Row | Structure (SMILES) | IC50 [nM]
1 | COc1ccc(C[C@@H]2NC(=O)[C@H](CC(C)C)NC(=O)[C@H](CCC(N)=O)NC(=O)[C@H](Cc3c[nH]c4ccccc34)NC(=O)[C@H]([C@@H](C)O)NC(=O)[C@H](CC(N)=O)NC(=O)[C@H](NC(C)=O)CCCCNC(=O)C[C@@H](C(=O)N[C@@H](CC(N)=O)C(=O)N[C@@H](CC(N)=O)C(=O)O)NC(=O)C(C)(C)NC(=O)[C@H](Cc3ccc4ccccc4c3)NC2=O)cc1 [WO2025051920, Example 1] | 0.63
2 | COc1ccc(C[C@@H]2NC(=O)[C@H](C)NC(=O)[C@H](CCC(N)=O)NC(=O)[C@H](Cc3c[nH]c4ccccc34)NC(=O)[C@H]([C@@H](C)O)NC(=O)[C@H](CC(N)=O)NC(=O)[C@H](NC(C)=O)CCCCNC(=O)C[C@@H](C(=O)N[C@@H](CC(N)=O)C(=O)N[C@@H](CC(N)=O)C(=O)O)NC(=O)C(C)(C)NC(=O)[C@H](Cc3ccc4ccccc4c3)NC2=O)cc1 [WO2025051920, Example 2] | 0.69
3 | CC(=O)N[C@@H]1CCCCNC(=O)C[C@@H](C(=O)N[C@@H](CC(N)=O)C(=O)N[C@@H](CC(N)=O)C(=O)O)NC(=O)C(C)(C)NC(=O)[C@H](Cc2ccc3ccccc3c2)NC(=O)[C@H](Cc2ccc(O)cc2)NC(=O)[C@H](CCCNC(=N)N)NC(=O)[C@H](CCC(N)=O)NC(=O)[C@H](Cc2c[nH]c3ccccc23)NC(=O)[C@H]([C@@H](C)O)NC(=O)[C@H](CC(N)=O)NC1=O [WO2025051920, Example 4] | 1.59
4 | COc1ccc(C[C@@H]2NC(=O)[C@H](CCCNC(=N)N)NC(=O)[C@H](CCC(N)=O)NC(=O)[C@H](Cc3c[nH]c4ccccc34)NC(=O)[C@H]([C@@H](C)O)NC(=O)[C@H](CC(N)=O)NC(=O)[C@@H](NC(C)=O)CC(=O)NCCCC(C(=O)N[C@@H](CC(N)=O)C(=O)N[C@@H](CC(N)=O)C(=O)O)NC(=O)C(C)(C)NC(=O)[C@H](Cc3ccc4ccccc4c3)NC2=O)cc1 (stereo not given in full) [WO2025051920, Example 6] | 1.96
5 | COc1ccc(C[C@@H]2NC(=O)[C@H](CC(C)C)NC(=O)[C@H](CCC(N)=O)NC(=O)[C@H](Cc3c[nH]c4ccccc34)NC(=O)[C@H]([C@@H](C)O)NC(=O)[C@H](CC(N)=O)NC(=O)[C@H](NC(C)=O)CCCCNC(=O)C[C@@H](C(=O)N[C@@H](CC(N)=O)C(=O)N[C@@H](CC(N)=O)C(=O)O)NC(=O)C(C)(C)NC(=O)[C@H](Cc3cccc4ccccc34)NC2=O)cc1 [WO2025051920, Example 7] | 2.47
6 | COc1ccc(C[C@@H]2NC(=O)[C@H](C)NC(=O)[C@H](CCC(N)=O)NC(=O)[C@H](Cc3c[nH]c4ccccc34)NC(=O)[C@H]([C@@H](C)O)NC(=O)[C@H](CC(N)=O)NC(=O)[C@H](NC(C)=O)CCCCNC(=O)C[C@@H](C(=O)N[C@@H](CC(N)=O)C(=O)N[C@@H](CC(N)=O)C(=O)O)NC(=O)C(C)(C)NC(=O)[C@H](Cc3cccc4ccccc34)NC2=O)cc1 [WO2025051920, Example 8] | 2.74
7 | COc1ccc(C[C@@H]2NC(=O)[C@H](CCCNC(=N)N)NC(=O)[C@H](CCC(N)=O)NC(=O)[C@H](Cc3cn(C)c4ccccc34)NC(=O)[C@H]([C@@H](C)O)NC(=O)[C@H](CC(N)=O)NC(=O)[C@H](NC(C)=O)CCCCNC(=O)C[C@@H](C(=O)N[C@@H](CC(N)=O)C(=O)N[C@@H](CC(N)=O)C(=O)O)NC(=O)[C@H](CCCCNC(C)=O)NC(=O)[C@H](Cc3ccc4ccccc4c3)NC2=O)cc1 [WO2025051920, Example 10] | 3.6
8 | COc1ccc(C[C@@H]2NC(=O)[C@H](CCCNC(=N)N)NC(=O)[C@H](CCC(N)=O)NC(=O)[C@H](Cc3c[nH]c4ccccc34)NC(=O)[C@H]([C@@H](C)O)NC(=O)[C@H](CC(N)=O)NC(=O)[C@H](NC(C)=O)CC(=O)NCCCC[C@@H](C(=O)N[C@@H](CC(N)=O)C(=O)N[C@@H](CC(N)=O)C(=O)O)NC(=O)C(C)(C)NC(=O)[C@H](Cc3cccc4ccccc34)NC2=O)cc1 [WO2025051920, Example 11] | 18.9
9 | COc1ccc(C[C@@H]2NC(=O)[C@H](CCCNC(=N)N)NC(=O)[C@H](CCC(N)=O)NC(=O)[C@H](Cc3c[nH]c4ccccc34)NC(=O)[C@H]([C@@H](C)O)NC(=O)[C@H](CC(N)=O)NC(=O)[C@H](NC(C)=O)CC(=O)NCCCC[C@@H](C(=O)N[C@@H](CC(N)=O)C(=O)N[C@@H](CC(N)=O)C(=O)O)NC(=O)C(C)(C)NC(=O)[C@H](Cc3ccc4ccccc4c3)NC2=O)cc1 [WO2025051920, Example 12] | 14.9
10 | COc1ccc(C[C@@H]2NC(=O)[C@H](CCCNC(=N)N)NC(=O)[C@H](CCC(N)=O)NC(=O)[C@H](Cc3c[nH]c4ccccc34)NC(=O)[C@H]([C@@H](C)O)NC(=O)[C@H](CC(N)=O)NC(=O)[C@H](NC(C)=O)CC(=O)NCCC[C@@H](C(=O)N[C@@H](CC(N)=O)C(=O)N[C@@H](CC(N)=O)C(=O)O)NC(=O)C(C)(C)NC(=O)[C@H](Cc3ccc4ccccc4c3)NC2=O)cc1 [WO2025051920, Example 13] | 6.24
11 | CC(=O)N[C@@H]1CCCCNC(=O)C[C@@H](C(=O)N[C@@H](CC(N)=O)C(=O)N[C@@H](CC(N)=O)C(=O)O)NC(=O)C(C)(C)NC(=O)[C@H](Cc2cccc3ccccc23)NC(=O)[C@H](Cc2ccc(O)cc2)NC(=O)[C@H](CCCNC(=N)N)NC(=O)[C@H](CCC(N)=O)NC(=O)[C@H](Cc2c[nH]c3ccccc23)NC(=O)[C@H]([C@@H](C)O)NC(=O)[C@H](CC(N)=O)NC1=O [WO2025051920, Example 14] | 5.42
12 | COc1ccc(C[C@@H]2NC(=O)[C@H](CCCNC(=N)N)NC(=O)[C@H](CCC(N)=O)NC(=O)[C@H](Cc3c[nH]c4ccccc34)NC(=O)[C@H]([C@@H](C)O)NC(=O)[C@H](CC(N)=O)NC(=O)[C@H](NC(C)=O)CCCCNC(=O)C[C@@H](C(=O)N[C@@H](CC(N)=O)C(=O)N[C@@H](CC(N)=O)C(=O)O)NC(=O)[C@H](CCCCNC(C)=O)NC(=O)[C@H](Cc3cccc4ccccc34)NC2=O)cc1 [WO2025051920, Example 17] | 7.87
13 | COc1ccc(C[C@@H]2NC(=O)[C@H](CCCNC(=N)N)NC(=O)[C@H](CCC(N)=O)NC(=O)[C@H](Cc3c[nH]c4ccccc34)NC(=O)[C@H]([C@@H](C)O)NC(=O)[C@H](CC(N)=O)NC(=O)[C@H](NC(C)=O)CCCCNC(=O)C[C@@H](C(=O)N[C@@H](CC(N)=O)C(=O)N[C@@H](CC(N)=O)C(=O)O)NC(=O)[C@H](CCCNC(N)=O)NC(=O)[C@H](Cc3cccc4ccccc34)NC2=O)cc1 [WO2025051920, Example 18] | 11.7
14 | COc1ccc(C[C@@H]2NC(=O)[C@H](CCCNC(=N)N)NC(=O)[C@H](CCC(N)=O)NC(=O)[C@H](Cc3c[nH]c4ccccc34)NC(=O)[C@H]([C@@H](C)O)NC(=O)[C@H](CC(N)=O)NC(=O)[C@H](NC(C)=O)CCCCNC(=O)C[C@@H](C(=O)N[C@@H](CC(N)=O)C(=O)N[C@@H](CC(N)=O)C(=O)O)NC(=O)[C@H](CCC(N)=O)NC(=O)[C@H](Cc3cccc4ccccc34)NC2=O)cc1 [WO2025051920, Example 19] | 15.6
15 | COc1ccc(C[C@@H]2NC(=O)[C@H](C(C)C)NC(=O)[C@H](CCC(N)=O)NC(=O)[C@H](Cc3c[nH]c4ccccc34)NC(=O)[C@H]([C@@H](C)O)NC(=O)[C@H](CC(N)=O)NC(=O)[C@H](NC(C)=O)CCCCNC(=O)C[C@@H](C(=O)N[C@@H](CC(N)=O)C(=O)N[C@@H](CC(N)=O)C(=O)O)NC(=O)C(C)(C)NC(=O)[C@H](Cc3cccc4ccccc34)NC2=O)cc1 [WO2025051920, Example 20] | 15.9
16 | COc1ccc(C[C@@H]2NC(=O)C(C)(C)NC(=O)[C@H](CCC(N)=O)NC(=O)[C@H](Cc3c[nH]c4ccccc34)NC(=O)[C@H]([C@@H](C)O)NC(=O)[C@H](CC(N)=O)NC(=O)[C@H](NC(C)=O)CCCCNC(=O)C[C@@H](C(=O)N[C@@H](CC(N)=O)C(=O)N[C@@H](CC(N)=O)C(=O)O)NC(=O)C(C)(C)NC(=O)[C@H](Cc3cccc4ccccc34)NC2=O)cc1 [WO2025051920, Example 21] | 16.9
17 | COc1ccc(C[C@@H]2NC(=O)[C@H](CCCNC(=N)N)NC(=O)[C@H](CCC(N)=O)NC(=O)[C@H](Cc3c[nH]c4ccccc34)NC(=O)[C@H]([C@@H](C)O)NC(=O)[C@H](CC(N)=O)NC(=O)[C@H](NC(C)=O)CCCNC(=O)CC[C@@H](C(=O)N[C@@H](CC(N)=O)C(=O)N[C@@H](CC(N)=O)C(=O)O)NC(=O)C(C)(C)NC(=O)[C@H](Cc3cccc4ccccc34)NC2=O)cc1 [WO2025051920, Example 22] | 48.4
18 | COc1ccc(C[C@@H]2NC(=O)[C@H](CCCNC(=N)N)NC(=O)[C@H](CCC(N)=O)NC(=O)[C@H](Cc3cn(C)c4ccccc34)NC(=O)[C@H]([C@@H](C)O)NC(=O)[C@H](CC(N)=O)NC(=O)[C@H](NC(C)=O)CCCCNC(=O)C[C@@H](C(=O)N[C@@H](CC(N)=O)C(=O)N[C@@H](CC(N)=O)C(=O)O)NC(=O)[C@@H](Cc3cscn3)NC(=O)[C@H](Cc3ccc4ccccc4c3)NC2=O)cc1 [WO2025051920, Example 25] | 9.61
19 | COc1ccc(C[C@@H]2NC(=O)[C@H](CCCNC(=N)N)NC(=O)[C@H](CCC(N)=O)NC(=O)[C@H](Cc3c[nH]c4ccccc34)NC(=O)[C@H]([C@@H](C)O)NC(=O)[C@H](CC(N)=O)NC(=O)[C@H](NC(C)=O)CCCNC(=O)C[C@@H](C(=O)N[C@@H](CC(N)=O)C(=O)N[C@@H](CC(N)=O)C(N)=O)NC(=O)C(C)(C)NC(=O)[C@H](Cc3ccc4ccccc4c3)NC2=O)cc1 [WO2025051920, Example 27] (Ac-[dOrn]NTWQRY(Me)[2Nal][Aib]DNN-NH2; lactam 1-10) | 19.7
20 | COc1ccc(C[C@@H]2NC(=O)[C@H](CCCNC(=N)N)NC(=O)[C@H](CCC(N)=O)NC(=O)[C@H](Cc3c[nH]c4ccccc34)NC(=O)[C@H]([C@@H](C)O)NC(=O)[C@H](CC(N)=O)NC(=O)[C@H](NC(C)=O)CCCCNC(=O)C[C@@H](C(=O)N[C@@H](CC(N)=O)C(=O)N[C@@H](CC(N)=O)C(=O)O)NC(=O)[C@H](CCCCN)NC(=O)[C@H](Cc3ccc4ccccc4c3)NC2=O)cc1 [WO2025051920, Example 28] | 9.03
